“Also recorded” adds a separate entry of the source. Where a SMILES comes first, the peptide text is derived from it.
Test: Peptide stability in human plasma (RP-HPLC)
Type: in vitro ADME
Conditions: human plasma (EDTA blood, healthy volunteers), 37 °C, various time points, RP-HPLC with 0.1% trifluoroacetic acid, absorbance at 210 nm, average ± SEM of three separate experiments; result in words
Experimental: Figure 1 Peptide stability in plasma. Pentapeptide 1 was incubated in human plasma at 37 °C. Levels of the peptide remaining after various time points were analyzed by RP-HPLC in the presence of 0.1% trifluoroacetic acid and detected by absorbance at 210 nm. Peptide amounts were calculated relative to quantities determined at time point zero, and data shown are the average ± SEM of three separate experiments.
Blood was collected from healthy volunteers in EDTA blood collection tubes (BD Vacutainer, Mississauga, ON, Canada). Plasma was collected after centrifugation at 900× g and 20 °C for 10 min with decreased deceleration, aliquoted, and stored at −80 °C. All subjects gave their informed consent for inclusion before they participated in the study. The study was conducted in accordance with the Declaration of Helsinki, with all protocols approved by the Research Ethics Board at Health Sciences North Research Institute (Protocol # 18-061).
The stability of pentapeptide 1 in human plasma was analyzed using previously published methods.

With `NCCCC[C@H](N)C(=O)N[C@@H](Cc1c[nH]c2ccccc12)C(=O)N[C@@H](CS)C(=O)N[C@@H](CCC(=O)O)C(=O)N[C@@H](CS)C(=O)O` [Peptide 1, KWCEC] (H-KWCEC-OH) the “Plasma stability: peptide remaining relative to time point zero” value was “No statistical difference was found between the two time points; also recorded: not recognized and cleaved by proteolytic enzymes”.

From article PMC7143940, “Enhancing the Immune Response of a Nicotine Vaccine with Synthetic Small “Non-Natural” Peptides” (Molecules, 2020)
